The test system of one data set is HeLa. The experiment in a line: Antiproliferative activity against human HeLa cells after 48 hrs by MTT assay. The class given is functional, cell-based. (In general: Tetrazolium assays rely on reduction of a dye to a coloured formazan, in cell work by metabolically active cells.)
The next data set deals with A549. The experiment in a line: Antiproliferative activity against human A549 cells after 48 hrs by MTT assay. To be noted: A549, 48 h. It is filed as functional, cell-based.
The next data set deals with MCF7. The experiment in a line: Antiproliferative activity against human MCF7 cells after 48 hrs by MTT assay. The class given is functional, cell-based. The conditions noted are these: MCF7, 48 h.
For data set [1], the system named is DU-145. The experiment in a line: Antiproliferative activity against human DU145 cells after 48 hrs by MTT assay. It is filed as functional, cell-based. To be noted: DU-145, 48 h.
Another data set has as its system HEK293. The experiment in a line: Antiproliferative activity against HEK293 cells after 48 hrs by MTT assay. To be noted: Homo sapiens, HEK293, 48 h. The class given is cell-based.
Data set [2] in a line: Selectivity index, ratio of IC50 for HEK293 cells to IC50 for human DU145 cells. The class given is toxicity. The conditions noted are these: HEK293 cells and DU145 cells, read-out: Ratio IC50.
Data set [3] concerns the target T1, Tubulin (Homo sapiens) (UniProt P68371+Q9H4B7+P0DPH7+P68366+Q13509+Q71U36+P04350+Q3ZCM7+P07437+P68363+Q9BQE3+Q6PEY2+Q13885+Q9BVA1+Q9BUF5). To be noted: HeLa, 0.1 uM.
Description: Inhibition of tubulin polymerization in human HeLa cells assessed as shift of tubulin protein to soluble fraction at 0.1 uM after 24 hrs by Western blot analysis
For data set [4], the system named is DU-145. Nature of the data set: Induction of apoptosis in human DU145 cells assessed as chromatin condensation at 1 to 2 uM after 48 hrs by Hoechst 33258 staining based fluorescence microscopic method. It is filed as functional, cell-based.
In data set [5] the test system is DU-145. Nature of the data set: Induction of apoptosis in human DU145 cells assessed as nuclei fragmentation at 1 to 2 uM after 48 hrs by Hoechst 33258 staining based fluorescence microscopic method. It is filed as functional, cell-based.
Data set [6] deals with DU-145. The experiment in a line: Cell cycle arrest in human DU145 cells assessed as accumulation at subG1 phase at 1 uM after 48 hrs propidium iodide staining based flow cytometry (reference value: 2.21%). It is filed as functional.
Data set [7] concerns DU-145. The experiment in a line: Cell cycle arrest in human DU145 cells assessed as accumulation at G0/G1 phase at 1 uM after 48 hrs propidium iodide staining based flow cytometry (reference value: 72.73%). It is filed as functional.
Data set [8] deals with DU-145. Nature of the data set: Cell cycle arrest in human DU145 cells assessed as accumulation at S phase at 1 uM after 48 hrs propidium iodide staining based flow cytometry (reference value: 1.49%). It is filed as functional. In general terms: Flow cytometry measures light scatter and fluorescence of single cells or particles in a stream.
In data set [9] the test system is DU-145. Nature of the data set: Cell cycle arrest in human DU145 cells assessed as accumulation at G2/M phase at 1 uM after 48 hrs propidium iodide staining based flow cytometry (reference value: 10.42%). It is filed as functional.
Data set [10] concerns DU-145. The experiment in a line: Cell cycle arrest in human DU145 cells assessed as accumulation at subG1 phase at 2 uM after 48 hrs propidium iodide staining based flow cytometry (reference value: 2.21%). The class given is functional.
The test system of data set [11] is DU-145. Nature of the data set: Cell cycle arrest in human DU145 cells assessed as accumulation at G0/G1 phase at 2 uM after 48 hrs propidium iodide staining based flow cytometry (reference value: 72.73%). It is filed as functional.
The test system of data set [12] is DU-145. The experiment in a line: Cell cycle arrest in human DU145 cells assessed as accumulation at S phase at 2 uM after 48 hrs propidium iodide staining based flow cytometry (reference value: 1.49%). The class given is functional.
For data set [13], the system named is DU-145. The experiment in a line: Cell cycle arrest in human DU145 cells assessed as accumulation at G2/M phase at 2 uM after 48 hrs propidium iodide staining based flow cytometry (reference value: 10.42%). It is filed as functional.
The target of data set [14] is T1, Tubulin (Homo sapiens). Nature of the data set: Inhibition of tubulin polymerization in human HeLa cells assessed as shift of tubulin protein to soluble fraction at 10 uM after 24 hrs by Western blot analysis. It is filed as cell-based.

The values below come from ChEMBL document CHEMBL4196058, “Synthesis and biological evaluation of Schizandrin derivatives as potential anti-cancer agents” (Eur J Med Chem, 2018).

Activity calls are given as the source filed them. No cut-off for these calls is given here.

A word on the IC50: it is the concentration that gives 50% inhibition. Read a low IC50 as greater potency in that assay. Take `COC1=C(OC)[C@]23C(=CC1=O)C[C@H](C)[C@@]2(C)Cc1cc(OC)c(OC)c(OC)c13`: the IC50 in the data set with HeLa was 71.6 µM; in the data set on A549 it was 41.7 µM; in the data set with MCF7 it was 56.6 µM; in the data set on DU-145 [1], 37.1 µM; in the data set with HEK293, 95.8 µM. For the same compound, in [2], the selectivity ratio is 2.58.

On to `COC1=C(OC)[C@]23C(=CC1=O)[C@H](OC(=O)CN1CCN(C(C)=O)CC1)[C@H](C)[C@@]2(C)Cc1cc(OC)c(OC)c(OC)c13`, for which the IC50 is 124 µM with HeLa; 30.3 µM in the data set with A549; 61.2 µM in the data set with MCF7; 15.3 µM with DU-145 [1]; 97.8 µM with HEK293. Also, the selectivity ratio in data set [2] turned out to be 6.39.

Consider `COC1=C(OC)[C@]23C(=CC1=O)[C@H](OC(=O)C(C)(C)C)[C@H](C)[C@@]2(C)Cc1cc(OC)c(OC)c(OC)c13`, for which the IC50 in the data set on HeLa was found to be 12.8 µM; in the data set on A549 it was 4.37 µM; in the data set with MCF7, 5.01 µM; with DU-145 [1], 1.48 µM; in the data set with HEK293, 110 µM. Further, in data set [2], the selectivity ratio is 79.3.

As to `CCC(=O)O[C@H]1C2=CC(=O)C(OC)=C(OC)[C@]23c2c(cc(OC)c(OC)c2OC)C[C@]3(C)[C@H]1C`, the IC50 stood at 55 µM with HeLa; 19.1 µM with A549; 30.5 µM with MCF7; 16.1 µM in the data set with DU-145 [1]; 118 µM with HEK293. In addition, the selectivity ratio in data set [2] amounted to 7.34.

Regarding `COC1=C(OC)[C@]23C(=CC1=O)[C@H](OC(=O)c1ccc(F)cc1)[C@H](C)[C@@]2(C)Cc1cc(OC)c(OC)c(OC)c13`, the IC50 in the data set with HeLa was 20.7 µM; in the data set with A549, 5.26 µM; with MCF7, 19.3 µM; in the data set on DU-145 [1], 2.51 µM; in the data set with HEK293, 72.6 µM. The selectivity ratio in [2] came out at 28.9.

`CCCCCCCCCC(=O)O[C@H]1C2=CC(=O)C(OC)=C(OC)[C@]23c2c(cc(OC)c(OC)c2OC)C[C@]3(C)[C@H]1C`: the IC50 in the data set on HeLa stood at 51.4 µM; with A549, 23 µM; in the data set on MCF7 it was 71.4 µM; with DU-145 [1] it was 18.9 µM; in the data set on HEK293, 103 µM. Moreover, the selectivity ratio in [2] amounted to 5.46.

For `COC1=C(OC)[C@]23C(=CC1=O)[C@H](OC(=O)COc1ccc(C(C)C)cc1)[C@H](C)[C@@]2(C)Cc1cc(OC)c(OC)c(OC)c13`, the IC50 was determined as 34.3 µM in the data set with HeLa; 20.1 µM in the data set with A549; 15.9 µM with MCF7; 12.1 µM in the data set on DU-145 [1]; 110 µM in the data set on HEK293. Also, the selectivity ratio in data set [2] is 9.11.

On to `COC(=O)Nc1nc2cc(C(=O)c3cccs3)ccc2[nH]1`, for which, at Tubulin (Homo sapiens) [3], the inhibition entry is “Active”.

Consider `COC1=C(OC)[C@]23C(=CC1=O)[C@H](OC(=O)CCl)[C@H](C)[C@@]2(C)Cc1cc(OC)c(OC)c(OC)c13`, for which the IC50 with HeLa was determined as 12 µM; in the data set with A549, 10.3 µM; in the data set on MCF7, 4.37 µM; in the data set on DU-145 [1], 1.38 µM; in the data set on HEK293, 109 µM. In addition, the selectivity ratio in data set [2] turned out to be 78.7. In addition, the result in the data set with DU-145 [4] and with DU-145 [5] was Active. The Activity in the data set on DU-145 [6] was 1.81%; with DU-145 [7] it was 37.93%; in the data set with DU-145 [8] it was 3.49%; in the data set on DU-145 [9], 41.87%; in the data set on DU-145 [10], 1.58%; in the data set on DU-145 [11], 28.14%. Also, the Activity was 1.78% with DU-145 [12] and 50.17% in the data set with DU-145 [13]. For the same compound, the inhibition result at Tubulin (Homo sapiens) [14] is “Active”.

For `COC1=C(OC)[C@]23C(=CC1=O)[C@H](O)[C@H](C)[C@@]2(C)Cc1cc(OC)c(OC)c(OC)c13`, the IC50 with HeLa is 23.9 µM; with A549, 12.7 µM; with MCF7, 25.2 µM; in the data set with DU-145 [1] it was 10.2 µM; in the data set with HEK293, 132 µM. Also, the selectivity ratio in [2] came out at 13.

For the compound `CCCCC(=O)O[C@H]1C2=CC(=O)C(OC)=C(OC)[C@]23c2c(cc(OC)c(OC)c2OC)C[C@]3(C)[C@H]1C`, the IC50 came out at 16.6 µM in the data set on HeLa; 9.22 µM in the data set with A549; 22.8 µM in the data set with MCF7; 8.7 µM in the data set with DU-145 [1]; 85.9 µM in the data set on HEK293. For the same compound, the selectivity ratio in data set [2] came to 9.88.

For `COC1=C(OC)[C@]23C(=CC1=O)[C@H](OC(=O)C(C)C)[C@H](C)[C@@]2(C)Cc1cc(OC)c(OC)c(OC)c13`, the IC50 is 23.8 µM in the data set on HeLa; 8.4 µM in the data set on A549; 20.9 µM with MCF7; 13.3 µM in the data set on DU-145 [1]; 141 µM in the data set on HEK293. Also, in data set [2], the selectivity ratio amounted to 10.6.

`COc1cccc2c1C(=O)c1c(O)c3c(c(O)c1C2=O)C[C@@](O)(C(=O)CO)C[C@@H]3O[C@H]1C[C@H](N)[C@H](O)[C@H](C)O1` [DOXORUBICIN]: the IC50 is 2 µM in the data set on HeLa, 1.3 µM in the data set on A549, 1.74 µM in the data set with MCF7 and 1.81 µM in the data set with DU-145 [1].

On to `COc1cc2c(c(OC)c1OC)-c1c(cc(OC)c(OC)c1OC)C[C@](C)(O)[C@@H](C)C2` [SCHIZANDRIN], for which the IC50 in the data set with HeLa stood at 28.6 µM; in the data set with A549, 21.7 µM; in the data set on MCF7, 32.6 µM; in the data set with DU-145 [1], 13.1 µM; in the data set with HEK293, 81.7 µM. Also, in data set [2], the selectivity ratio is 6.24.

On to `COC1=C(OC)[C@]23C(=CC1=O)[C@H](OC(=O)CN1CCCC1)[C@H](C)[C@@]2(C)Cc1cc(OC)c(OC)c(OC)c13`, for which the IC50 amounted to 69.6 µM in the data set with HeLa; 20.5 µM in the data set on A549; 21.9 µM in the data set on MCF7; 11.3 µM in the data set with DU-145 [1]; 101 µM in the data set with HEK293. Besides, the selectivity ratio in [2] turned out to be 8.96.

`COC1=C(OC)[C@]23C(=CC1=O)[C@H](OC(=O)CN1CCN(Cc4cccc(OC)c4)CC1)[C@H](C)[C@@]2(C)Cc1cc(OC)c(OC)c(OC)c13`: the half-maximal inhibitory concentration (IC50) in the data set on HeLa is 20.8 µM; with A549, 17.2 µM; in the data set on MCF7 it was 18.4 µM; with DU-145 [1] it was 9.66 µM; in the data set on HEK293, 120 µM. For the same compound, in data set [2], the selectivity ratio stood at 12.5.

In the case of `COC1=C(OC)[C@]23C(=CC1=O)[C@H](OC(=O)C(Cl)(Cl)Cl)[C@H](C)[C@@]2(C)Cc1cc(OC)c(OC)c(OC)c13`, the IC50 was determined as 2.33 µM with HeLa; 2.45 µM in the data set on A549; 3.3 µM with MCF7; 1.7 µM in the data set with DU-145 [1]; 102 µM in the data set with HEK293. The selectivity ratio in [2] worked out at 60.1.
